Source: patent EP4745137A1 (Gluetacs Therapeutics (Shanghai) Co., Ltd., priority 2023, dated 2025)
Like-named read-outs stand apart in the source and are kept apart here.

Key:
WEE1 = target: T1, WEE1 (Homo sapiens, UniProt P30291+Q96SW2); assay: Western-blot assay of substrate protein degradation in hPBMCs, WEE1; type: cell-based; conditions: 24 hours of compound treatment, compounds tested at 50 nM and 500 nM (concentration of the table not stated)
T1 construct: endogenous in cells; host or cells: hPBMCs (Milecell Biotechnologies)

IKZF1 = target: T2, IKZF1 (Homo sapiens, UniProt Q13422+Q96SW2); assay: Western-blot assay of substrate protein degradation in hPBMCs, IKZF1; type: cell-based; conditions: 24 hours of compound treatment, compounds tested at 50 nM and 500 nM (concentration of the table not stated)
T2 construct: endogenous in cells; host or cells: hPBMCs (Milecell Biotechnologies)

IKZF2 = target: T3, IKZF2 (Homo sapiens, UniProt Q96SW2+Q9UKS7); assay: Western-blot assay of substrate protein degradation in hPBMCs, IKZF2; type: cell-based; conditions: 24 hours of compound treatment, compounds tested at 50 nM and 500 nM (concentration of the table not stated)
T3 construct: endogenous in cells; host or cells: hPBMCs (Milecell Biotechnologies)

IKZF3 = target: T4, IKZF3 (Homo sapiens, UniProt Q96SW2+Q9UKT9); assay: Western-blot assay of substrate protein degradation in hPBMCs, IKZF3; type: cell-based; conditions: 24 hours of compound treatment, compounds tested at 50 nM and 500 nM (concentration of the table not stated)
T4 construct: endogenous in cells; host or cells: hPBMCs (Milecell Biotechnologies)

CK1α = target: T5, CK1α (Homo sapiens, UniProt P48729+Q96SW2); assay: Western-blot assay of substrate protein degradation in hPBMCs, CK1α; type: cell-based; conditions: 24 hours of compound treatment, compounds tested at 50 nM and 500 nM (concentration of the table not stated)
T5 construct: endogenous in cells; host or cells: hPBMCs (Milecell Biotechnologies)

GSPT1 = target: T6, GSPT1 (Homo sapiens, UniProt P15170+Q96SW2); assay: Western-blot assay of substrate protein degradation in hPBMCs, GSPT1; type: cell-based; conditions: 24 hours of compound treatment, compounds tested at 50 nM and 500 nM (concentration of the table not stated)
T6 construct: endogenous in cells; host or cells: hPBMCs (Milecell Biotechnologies)

[1] = target: T7, human Cereblon WT GST-tagged protein (Homo sapiens, UniProt Q96SW2); assay: CRBN-binding affinity by HTRF (CEREBLON BINDING kit)
T7 construct: purchased CISBIO 64BDCRBNPEH

[2] = HTRF inhibitory activity, CEREBLON BINDING kit, read-out: HTRF IC50

T3 sequence (Q9UKS7 whole entry): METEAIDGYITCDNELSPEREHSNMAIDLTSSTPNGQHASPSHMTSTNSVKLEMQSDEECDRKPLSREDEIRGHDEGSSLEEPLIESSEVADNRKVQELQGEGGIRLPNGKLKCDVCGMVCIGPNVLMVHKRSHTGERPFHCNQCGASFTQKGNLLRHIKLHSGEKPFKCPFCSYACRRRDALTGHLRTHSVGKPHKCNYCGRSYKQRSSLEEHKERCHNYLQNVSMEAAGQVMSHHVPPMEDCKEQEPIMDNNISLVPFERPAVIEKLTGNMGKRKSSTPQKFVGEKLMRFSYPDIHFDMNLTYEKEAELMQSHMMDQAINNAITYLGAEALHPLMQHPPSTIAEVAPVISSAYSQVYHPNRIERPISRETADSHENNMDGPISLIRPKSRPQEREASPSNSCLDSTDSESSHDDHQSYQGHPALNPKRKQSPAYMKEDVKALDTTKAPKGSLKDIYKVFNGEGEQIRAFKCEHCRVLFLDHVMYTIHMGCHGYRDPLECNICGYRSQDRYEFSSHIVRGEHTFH
T3 sequence (Q96SW2 whole entry): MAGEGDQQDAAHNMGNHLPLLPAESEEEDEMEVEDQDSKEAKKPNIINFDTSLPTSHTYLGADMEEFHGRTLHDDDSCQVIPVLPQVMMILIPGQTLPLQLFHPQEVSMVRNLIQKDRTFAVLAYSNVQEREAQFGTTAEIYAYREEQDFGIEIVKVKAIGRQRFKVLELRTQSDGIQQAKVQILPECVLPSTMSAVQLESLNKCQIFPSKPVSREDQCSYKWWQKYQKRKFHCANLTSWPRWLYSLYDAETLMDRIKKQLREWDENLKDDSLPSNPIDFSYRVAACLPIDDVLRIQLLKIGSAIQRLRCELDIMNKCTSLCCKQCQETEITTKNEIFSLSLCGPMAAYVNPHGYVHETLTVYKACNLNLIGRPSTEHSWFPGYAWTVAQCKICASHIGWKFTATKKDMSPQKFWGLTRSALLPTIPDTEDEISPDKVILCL
T3 sequence (Q16531 whole entry partner): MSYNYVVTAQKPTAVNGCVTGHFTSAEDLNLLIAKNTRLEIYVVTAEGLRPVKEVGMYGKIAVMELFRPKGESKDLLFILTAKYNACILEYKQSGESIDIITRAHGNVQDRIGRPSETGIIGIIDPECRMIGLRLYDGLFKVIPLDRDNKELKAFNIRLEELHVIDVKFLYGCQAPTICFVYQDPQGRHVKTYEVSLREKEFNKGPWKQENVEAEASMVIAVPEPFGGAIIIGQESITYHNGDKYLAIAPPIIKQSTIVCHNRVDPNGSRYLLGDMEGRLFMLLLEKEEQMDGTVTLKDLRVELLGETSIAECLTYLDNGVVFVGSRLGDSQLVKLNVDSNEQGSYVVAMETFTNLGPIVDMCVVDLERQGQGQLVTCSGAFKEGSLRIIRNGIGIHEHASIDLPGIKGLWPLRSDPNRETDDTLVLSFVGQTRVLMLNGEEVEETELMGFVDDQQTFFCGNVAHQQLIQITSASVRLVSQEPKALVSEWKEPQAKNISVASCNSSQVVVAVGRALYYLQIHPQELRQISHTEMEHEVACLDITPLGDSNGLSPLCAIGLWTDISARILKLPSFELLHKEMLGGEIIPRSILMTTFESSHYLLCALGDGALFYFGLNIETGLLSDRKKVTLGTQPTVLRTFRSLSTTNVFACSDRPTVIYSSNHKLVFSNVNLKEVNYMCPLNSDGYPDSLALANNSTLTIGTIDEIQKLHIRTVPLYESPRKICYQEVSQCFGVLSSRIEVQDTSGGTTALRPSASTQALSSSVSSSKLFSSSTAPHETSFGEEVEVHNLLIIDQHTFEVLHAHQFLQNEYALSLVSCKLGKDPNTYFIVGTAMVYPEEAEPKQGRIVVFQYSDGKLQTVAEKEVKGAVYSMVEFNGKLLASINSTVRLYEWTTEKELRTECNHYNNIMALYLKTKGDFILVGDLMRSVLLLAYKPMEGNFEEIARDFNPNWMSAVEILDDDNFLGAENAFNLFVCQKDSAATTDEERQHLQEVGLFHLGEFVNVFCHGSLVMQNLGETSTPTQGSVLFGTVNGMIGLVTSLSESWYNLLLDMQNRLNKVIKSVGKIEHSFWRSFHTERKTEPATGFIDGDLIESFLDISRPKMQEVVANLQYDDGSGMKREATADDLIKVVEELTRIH
T7 sequence (Q96SW2 whole entry): as the sequence (Q96SW2 whole entry) above
T5 sequence (P48729 whole entry): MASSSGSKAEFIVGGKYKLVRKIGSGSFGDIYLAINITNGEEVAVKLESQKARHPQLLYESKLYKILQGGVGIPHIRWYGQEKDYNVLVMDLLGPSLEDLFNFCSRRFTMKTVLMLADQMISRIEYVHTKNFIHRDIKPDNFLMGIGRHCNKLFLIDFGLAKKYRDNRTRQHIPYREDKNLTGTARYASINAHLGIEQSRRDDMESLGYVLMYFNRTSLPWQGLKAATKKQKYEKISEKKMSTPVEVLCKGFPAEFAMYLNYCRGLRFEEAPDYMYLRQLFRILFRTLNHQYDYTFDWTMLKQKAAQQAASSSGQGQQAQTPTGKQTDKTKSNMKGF
T5 sequence (Q96SW2 whole entry): as the sequence (Q96SW2 whole entry) above
T5 sequence (Q16531 whole entry partner): as the sequence (Q16531 whole entry partner) above
T1 sequence (P30291 whole entry): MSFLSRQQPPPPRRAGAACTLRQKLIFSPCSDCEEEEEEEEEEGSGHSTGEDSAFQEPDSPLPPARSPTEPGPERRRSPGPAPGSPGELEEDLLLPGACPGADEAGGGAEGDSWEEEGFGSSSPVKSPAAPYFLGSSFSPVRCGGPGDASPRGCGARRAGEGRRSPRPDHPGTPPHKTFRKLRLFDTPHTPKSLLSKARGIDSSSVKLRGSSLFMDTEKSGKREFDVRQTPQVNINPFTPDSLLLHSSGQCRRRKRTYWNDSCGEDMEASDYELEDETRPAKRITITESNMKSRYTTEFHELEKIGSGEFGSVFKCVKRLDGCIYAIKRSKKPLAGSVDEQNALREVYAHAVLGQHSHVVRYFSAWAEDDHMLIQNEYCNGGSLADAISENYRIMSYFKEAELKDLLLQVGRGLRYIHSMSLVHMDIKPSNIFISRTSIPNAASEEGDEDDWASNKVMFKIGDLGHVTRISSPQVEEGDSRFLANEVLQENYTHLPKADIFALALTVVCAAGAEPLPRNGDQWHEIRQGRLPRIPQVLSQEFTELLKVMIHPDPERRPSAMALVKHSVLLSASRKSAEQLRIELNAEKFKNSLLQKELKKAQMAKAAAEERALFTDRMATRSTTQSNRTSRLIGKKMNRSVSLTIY
T1 sequence (Q96SW2 whole entry): as the sequence (Q96SW2 whole entry) above
T1 sequence (Q16531 whole entry partner): as the sequence (Q16531 whole entry partner) above
T2 sequence (Q13422 whole entry): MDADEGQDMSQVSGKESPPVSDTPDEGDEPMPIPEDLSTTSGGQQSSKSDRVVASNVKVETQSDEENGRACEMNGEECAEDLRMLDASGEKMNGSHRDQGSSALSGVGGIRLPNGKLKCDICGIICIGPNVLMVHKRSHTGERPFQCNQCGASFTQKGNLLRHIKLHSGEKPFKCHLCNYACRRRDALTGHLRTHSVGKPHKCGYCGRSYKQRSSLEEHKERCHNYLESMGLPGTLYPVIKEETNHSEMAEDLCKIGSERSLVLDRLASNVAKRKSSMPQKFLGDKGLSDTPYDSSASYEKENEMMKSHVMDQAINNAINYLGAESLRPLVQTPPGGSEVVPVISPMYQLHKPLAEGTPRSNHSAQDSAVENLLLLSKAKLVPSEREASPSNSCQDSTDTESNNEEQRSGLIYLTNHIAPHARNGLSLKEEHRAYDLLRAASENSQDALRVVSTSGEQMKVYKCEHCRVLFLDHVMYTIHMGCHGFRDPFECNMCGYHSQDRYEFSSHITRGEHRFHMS
T2 sequence (Q96SW2 whole entry): as the sequence (Q96SW2 whole entry) above
T2 sequence (Q16531 whole entry partner): as the sequence (Q16531 whole entry partner) above
T6 sequence (P15170 whole entry): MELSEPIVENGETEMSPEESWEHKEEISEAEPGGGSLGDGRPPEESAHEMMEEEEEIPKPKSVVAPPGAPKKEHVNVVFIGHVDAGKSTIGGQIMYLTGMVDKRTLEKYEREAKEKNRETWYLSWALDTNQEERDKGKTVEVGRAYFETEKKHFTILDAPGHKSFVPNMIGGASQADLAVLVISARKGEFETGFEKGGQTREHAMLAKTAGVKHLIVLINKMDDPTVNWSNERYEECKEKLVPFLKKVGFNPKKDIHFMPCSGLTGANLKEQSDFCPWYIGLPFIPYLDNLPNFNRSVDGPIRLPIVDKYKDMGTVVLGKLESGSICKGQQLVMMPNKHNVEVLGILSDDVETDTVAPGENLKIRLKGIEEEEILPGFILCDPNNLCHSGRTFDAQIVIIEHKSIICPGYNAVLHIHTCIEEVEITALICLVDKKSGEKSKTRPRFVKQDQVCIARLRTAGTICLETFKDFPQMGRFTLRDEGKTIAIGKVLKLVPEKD
T6 sequence (Q96SW2 whole entry): as the sequence (Q96SW2 whole entry) above
T6 sequence (Q16531 whole entry partner): as the sequence (Q16531 whole entry partner) above

Compound	Weel substrate protein remaining % (WEE1)	IKZF 1 substrate protein remaining % (IKZF1)	IKZF2 substrate protein remaining % (IKZF2)	IKZF3 substrate protein remaining % (IKZF3)	CK1a substrate protein remaining % (CK1α)	GSPT1 substrate protein remaining % (GSPT1)	IC50 [1, 2]	IC50 [1]
O=C1CCC(N2Cc3cc(CN4CCN(c5ncc6ccsc6n5)CC4)ccc3C2=O)C(=O)N1 (centres unmarked) [GT-04725, 3-(1-oxo-5-((4-(thieno[2,3-d]pyrimidin-2-yl)piperazin-1-yl)methyl)isoindolin-2-yl)piperidine-2,6-dione]	B (80%< substrate protein remaining %≤ 100%)	B (80%< substrate protein remaining %≤ 100%)	B (80%< substrate protein remaining %≤ 100%)	B (80%< substrate protein remaining %≤ 100%)	B (80%< substrate protein remaining %≤ 100%)	A (0% ≤ substrate protein remaining % ≤ 80%)	< 500 nM	
Cc1ccsc1C1=CCN(Cc2cccc3c2CN(C2CCC(=O)NC2=O)C3=O)CC1 (centres unmarked) [GT-04728, 3-(4-((4-(3-methylthiophen-2-yl)-3,6-dihydropyridin-1(2H)-yl)methyl)-1-oxoisoindolin-2-yl)piperidine-2,6-dione]	B (80%< substrate protein remaining %≤ 100%)	B (80%< substrate protein remaining %≤ 100%)	B (80%< substrate protein remaining %≤ 100%)	B (80%< substrate protein remaining %≤ 100%)	B (80%< substrate protein remaining %≤ 100%)	A (0% ≤ substrate protein remaining % ≤ 80%)	1000 to 1500 nM	
O=C1CCC(N2Cc3cc(CN4CCC(N5C(=O)COc6cc(F)ccc65)CC4)ccc3C2=O)C(=O)N1 (centres unmarked) [GT-04860, 3-(5-((4-(7-fluoro-3-oxo-2,3-dihydro-4H-benzo[b][1,4]oxazin-4-yl)piperidin-1-yl)methyl)-1-oxoisoindolin-2-yl)piperidine-2,6-dione]	B (80%< substrate protein remaining %≤ 100%)	A (0% ≤ substrate protein remaining % ≤ 80%)	A (0% ≤ substrate protein remaining % ≤ 80%)	A (0% ≤ substrate protein remaining % ≤ 80%)	B (80%< substrate protein remaining %≤ 100%)	A (0% ≤ substrate protein remaining % ≤ 80%)		< 500 nM
O=C1CCC(N2Cc3cc(CN4CCN(c5ncnc6sc(Br)cc56)CC4)ccc3C2=O)C(=O)N1 (centres unmarked) [GT-04861, 3-(5-((4-(6-bromothieno[2,3-d]pyrimidin-4-yl)piperazin-1-yl)methyl)-1-oxoisoindolin-2-yl)piperidine-2,6-dione]	A (0% ≤ substrate protein remaining % ≤ 80%)	A (0% ≤ substrate protein remaining % ≤ 80%)	A (0% ≤ substrate protein remaining % ≤ 80%)	A (0% ≤ substrate protein remaining % ≤ 80%)	A (0% ≤ substrate protein remaining % ≤ 80%)	A (0% ≤ substrate protein remaining % ≤ 80%)	< 500 nM	
O=C1CCC(N2Cc3cc(CN4CCN(c5ncnc6sc(-c7ccccc7)cc56)CC4)ccc3C2=O)C(=O)N1 (centres unmarked) [GT-04862, 3-(1-oxo-5-((4-(6-phenylthieno[2,3-d]pyrimidin-4-yl)piperazin-1-yl)methyl)isoindolin-2-yl)piperidine-2,6-dione]	A (0% ≤ substrate protein remaining % ≤ 80%)	A (0% ≤ substrate protein remaining % ≤ 80%)	A (0% ≤ substrate protein remaining % ≤ 80%)	A (0% ≤ substrate protein remaining % ≤ 80%)	A (0% ≤ substrate protein remaining % ≤ 80%)	A (0% ≤ substrate protein remaining % ≤ 80%)	< 500 nM	
O=C1CCC(N2Cc3cc(CN4CC5CC(C4)N5c4cccc(Cl)c4Cl)ccc3C2=O)C(=O)N1 (centres unmarked) [GT-04897, 3-(5-((6-(2,3-dichlorophenyl)-3,6-diazabicyclo[3.1.1]heptan-3-yl)methyl)-1-oxoisoindolin-2-yl)piperidine-2,6-dione]	B (80%< substrate protein remaining %≤ 100%)	B (80%< substrate protein remaining %≤ 100%)	B (80%< substrate protein remaining %≤ 100%)	B (80%< substrate protein remaining %≤ 100%)	B (80%< substrate protein remaining %≤ 100%)	A (0% ≤ substrate protein remaining % ≤ 80%)	1500 to 1900 nM	
O=C1CCC(N2Cc3cc(CN4CC5CCC(C4)N5c4cccc(Cl)c4Cl)ccc3C2=O)C(=O)N1 (centres unmarked) [GT-04899, 3-(5-((8-(2,3-dichlorophenyl)-3,8-diazabicyclo[3.2.1]octan-3-yl)methyl)-1-oxoisoindolin-2-yl)piperidine-2,6-dione]	B (80%< substrate protein remaining %≤ 100%)	A (0% ≤ substrate protein remaining % ≤ 80%)	B (80%< substrate protein remaining %≤ 100%)	B (80%< substrate protein remaining %≤ 100%)	B (80%< substrate protein remaining %≤ 100%)	B (80%< substrate protein remaining %≤ 100%)	500 to 1000 nM	
O=C1CCC(N2Cc3cc(CN4CCN(c5noc6ccncc56)CC4)ccc3C2=O)C(=O)N1 (centres unmarked) [GT-04904, 3-(5-((4-(isoxazolo[4,5-c]pyridin-3-yl)piperazin-1-yl)methyl)-1-oxoisoindolin-2-yl)piperidine-2,6-dione]	B (80%< substrate protein remaining %≤ 100%)	A (0% ≤ substrate protein remaining % ≤ 80%)	B (80%< substrate protein remaining %≤ 100%)	B (80%< substrate protein remaining %≤ 100%)	B (80%< substrate protein remaining %≤ 100%)	B (80%< substrate protein remaining %≤ 100%)	< 500 nM	
O=C1CCC(N2Cc3cc(CN4CCN(c5nc(N6CCOCC6)c6sccc6n5)CC4)ccc3C2=O)C(=O)N1 (centres unmarked) [GT-04906, 3-(5-((4-(4-morpholinothieno[3,2-d]pyrimidin-2-yl)piperazin-1-yl)methyl)-1-oxoisoindolin-2-yl)piperidine-2,6-dione]	B (80%< substrate protein remaining %≤ 100%)	A (0% ≤ substrate protein remaining % ≤ 80%)	B (80%< substrate protein remaining %≤ 100%)	B (80%< substrate protein remaining %≤ 100%)	B (80%< substrate protein remaining %≤ 100%)	B (80%< substrate protein remaining %≤ 100%)	< 500 nM	
O=C1CCC(N2Cc3cc(CN4CC=C(c5ncnc6scc(-c7ccccc7)c56)CC4)ccc3C2=O)C(=O)N1 (centres unmarked) [GT-04908, 3-(1-oxo-5-((4-(5-phenylthieno[2,3-d]pyrimidin-4-yl)-3,6-dihydropyridin-1(2H)-yl)methyl)isoindolin-2-yl)piperidine-2,6-dione]	A (0% ≤ substrate protein remaining % ≤ 80%)	A (0% ≤ substrate protein remaining % ≤ 80%)	A (0% ≤ substrate protein remaining % ≤ 80%)	A (0% ≤ substrate protein remaining % ≤ 80%)	B (80%< substrate protein remaining %≤ 100%)	A (0% ≤ substrate protein remaining % ≤ 80%)	< 500 nM	
O=C1CCC(N2Cc3cc(CN4CCN(c5ccnc(Br)c5F)CC4)ccc3C2=O)C(=O)N1 (centres unmarked) [GT-04928, 3-(5-((4-(2-bromo-3-fluoropyridin-4-yl)piperazin-1-yl)methyl)-1-oxoisoindolin-2-yl)piperidine-2,6-dione]	B (80%< substrate protein remaining %≤ 100%)	B (80%< substrate protein remaining %≤ 100%)	B (80%< substrate protein remaining %≤ 100%)	B (80%< substrate protein remaining %≤ 100%)	B (80%< substrate protein remaining %≤ 100%)	A (0% ≤ substrate protein remaining % ≤ 80%)	< 500 nM	
